Test results published in patent publication US10711036B2, “MALT1 inhibitors and uses thereof” (Cornell University, priority 2015, dated 2020).
*1 amine or outer side, *2 acyl side, *3 side chain or, on linkers, in order; H or OH if unused. Where a SMILES comes first, the peptide text is derived from it. [ ]: non-standard residue; d: D form. The star is where a group is joined. cisHyp = O=C(O)[C@@H]1C[C@H](O)CN1; Hydrocinnamoyl = O=C(CCc1ccccc1)*; Hyp = O=C(O)[C@@H]1C[C@@H](O)CN1; Chg = N[C@H](C(=O)O)C1CCCCC1; Tle = CC(C)(C)[C@H](N)C(=O)O; NMeV = CN[C@H](C(=O)O)C(C)C; Ac5c = NC1(C(=O)O)CCCC1; Cbz = O=C(OCc1ccccc1)*; PhAc = O=C(Cc1ccccc1)*; CO = O=C([*:1])[*:2]; NHPh = c1ccc(N*)cc1; CH2F = FC*

How the values were obtained:
TMD8 = test: Maximum killing effect on TMD8; format: cell-based
Description: (§1) The maximum killing effects on cell-lines OCI-LY3, TMD8, and OCI-LY1 were also measured for select compounds at inhibitor concentration of 20 μM and 5 μM. TMD8 is another line of ABC type diffuse large-B cell lymphoma, while OCI-LY1 is a DLBCL line of the germinal center B-cell subtype.

OCI-LY1 = test: Maximum killing effect on OCI-LY1; format: cell-based
Description: as §1

OCI-LY3 [1] = test: Maximum killing effect on OCI-LY3; format: cell-based, human
Description: as §1

OCI-LY3 [2] = test: Cell growth inhibition assay (CellTiter-Glo, 96 hours), OCI-LY3; format: cell-based, human; conditions: OCI-LY3 cells, treated at t=0 and t=48 hours, ATP luminescence
Description: DLBCL cell lines were grown in exponential growth conditions during the 96 hours of treatment. Cells were treated twice: at t=0 and t=48 hours, and cell viability was determined by ATP quantification using a luminescent method ([…]-GLO, Promega, Madison, Wis.). Cell viability in drug-treated cells was normalized to vehicle controls (fractional viability) and results are given as 1-fractional viability.
Experiments were Performed in Triplicate.

RelB cleavage = test: Western blot for RelB cleavage in OCI-LY3 cells; format: cell-based, human; conditions: OCI-LY3 cells pretreated with inhibitor, then 5 μM MG-132 for 2 hours
Description: FIG. 1A. Western blots for RelB and MALT1 after 30 minutes pretreatment with indicated doses of compounds or vehicle, followed by proteasome inhibitor MG-132 (5 μM) treatment for 2 hours in OCI-LY3. clev=cleavage product of RelB.
FIG. 1B. Western blots for RelB with indicated doses of compounds or vehicle in OCI-LY3.
Western blot: OCI-Ly3 cells (a line of human diffuse large B-cell lymphoma (ABC type)) were pre-treated for 30 minutes with indicated doses of MALT1 inhibitors followed by a 2-hour treatment with proteasome inhibitor MG-132 at 5 μM. Protein was then extracted in a PBS-based lysis buffer containing 1% NP-40. Equal amounts of total protein (50 to 75 μg) were separated on sodium dodecyl sulfate-polyacrylamide gel electrophoresis (SDS-PAGE), and electrotransferred onto nitrocellulose membranes. Membranes were incubated with primary antibodies (MALT1, from Santa Cruz Biotechnologies, Santa Cruz, Calif.; RELB from Cell Signaling, Danvers, Mass., and α-Tubulin from Sigma), followed by secondary antibodies conjugated to horseradish peroxidase, which were detected by chemiluminescence (Pierce, Thermo Scientific, Rockford, Ill.).
OCI-LY3 cells were pretreated with the an inhibitor at the desired concentration and subsequently treated with 5 μM MG-132, a proteasome inhibitor, for 2 hours.

MALT1 = MALT1 (Homo sapiens (Human), UniProt Q9UDY8); test: Inhibition constants (Ki) for inhibition of MALT1; format: biochemical; conditions: 100 nM MALT1 used for the assay
Sequence of MALT1 (Q9UDY8 whole entry): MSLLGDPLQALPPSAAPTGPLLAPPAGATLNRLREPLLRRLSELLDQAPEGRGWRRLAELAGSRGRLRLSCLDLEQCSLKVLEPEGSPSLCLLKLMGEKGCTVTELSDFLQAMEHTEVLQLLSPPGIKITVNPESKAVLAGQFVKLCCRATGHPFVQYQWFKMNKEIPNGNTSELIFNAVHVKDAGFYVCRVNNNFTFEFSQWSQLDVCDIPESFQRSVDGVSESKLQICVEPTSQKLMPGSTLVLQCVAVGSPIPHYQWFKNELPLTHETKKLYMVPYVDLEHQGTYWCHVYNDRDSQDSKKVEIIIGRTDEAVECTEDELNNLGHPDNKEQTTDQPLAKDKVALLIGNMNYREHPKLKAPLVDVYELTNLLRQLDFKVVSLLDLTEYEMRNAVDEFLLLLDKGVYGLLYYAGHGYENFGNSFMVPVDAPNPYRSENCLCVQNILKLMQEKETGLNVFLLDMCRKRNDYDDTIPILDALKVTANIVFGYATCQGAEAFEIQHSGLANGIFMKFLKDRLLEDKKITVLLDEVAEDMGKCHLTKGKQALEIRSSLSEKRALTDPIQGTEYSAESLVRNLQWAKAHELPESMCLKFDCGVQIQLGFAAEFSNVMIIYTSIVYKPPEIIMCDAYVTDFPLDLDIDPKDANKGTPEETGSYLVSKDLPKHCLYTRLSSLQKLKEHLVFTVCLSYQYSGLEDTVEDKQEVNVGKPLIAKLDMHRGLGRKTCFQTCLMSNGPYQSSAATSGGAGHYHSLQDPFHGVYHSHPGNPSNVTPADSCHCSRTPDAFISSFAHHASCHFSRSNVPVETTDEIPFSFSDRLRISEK
Description: For exemplary compounds of the disclosure, Ki for inhibition of MALT1 was measured (Table E11). A concentration of 100 nM MALT1 was used for the assay.

SMILES | GI50 (OCI-LY3 [2]; Homo sapiens) [nM] | Ki (MALT1) [nM] | further results
CC(C)[C@H](NC(=O)OCc1ccccc1)C(=O)N[C@@H](CCCNC(=N)N)C(=O)N1CCC[C@H]1C(=O)N[C@@H](CCCNC(=N)N)C(=O)CF [Z-VRPR-fmk, reference compound] |  |  | Maximum killing effect (TMD8; TMD8, 5 μM): 27%; Maximum killing effect (TMD8; TMD8, 20 μM): 67%; Maximum killing effect (OCI-LY1; OCI-LY1, 5 μM): <0%; Maximum killing effect (OCI-LY1; OCI-LY1, 20 μM): <0%; Maximum killing effect (OCI-LY3 [1]; OCI-LY3, 5 μM): 42%; Maximum killing effect (OCI-LY3 [1]; OCI-LY3, 20 μM): 62%
CN1CCCC(CN2c3ccccc3Sc3ccccc32)C1 (centres unmarked) [mepazine, reference compound] |  |  | Maximum killing effect (TMD8; TMD8, 5 μM): 32%; Maximum killing effect (TMD8; TMD8, 20 μM): 99%; Maximum killing effect (OCI-LY1; OCI-LY1, 5 μM): 6%; Maximum killing effect (OCI-LY1; OCI-LY1, 20 μM): 82%; Maximum killing effect (OCI-LY3 [1]; OCI-LY3, 5 μM): 35%; Maximum killing effect (OCI-LY3 [1]; OCI-LY3, 20 μM): 97%
CC(C)[C@@H](C(=O)N1CCC[C@H]1C(=O)N[C@@H](CCCNC(=N)N)C(=O)CF)N(C)C(=O)OCc1ccccc1 [Compound 112] (Cbz-[NMeV]-Pro-Arg-CH2F) | > 20000 | 808 | Maximum killing effect (TMD8; TMD8, 20 μM): 66%; Maximum killing effect (OCI-LY1; OCI-LY1, 5 μM): 5%; Maximum killing effect (OCI-LY1; OCI-LY1, 20 μM): 2%; Inhibition of RelB cleavage (Western blot) (RelB cleavage): inhibition of RelB cleavage; Maximum killing effect (OCI-LY3 [1]; OCI-LY3, 5 μM): 28%; Maximum killing effect (OCI-LY3 [1]; OCI-LY3, 20 μM): 51%
CC(C)[C@H](NC(=O)c1cccc(Br)c1)C(=O)N1CCC[C@H]1C(=O)N[C@@H](CCCNC(=N)N)C(=O)CF [Compound 115] | 530 | 41 | Maximum killing effect (TMD8; TMD8, 20 μM): 64%; Maximum killing effect (OCI-LY1; OCI-LY1, 20 μM): 15%; Maximum killing effect (OCI-LY3 [1]; OCI-LY3, 20 μM): 84%
CC(C)[C@H](NC(=O)OCc1ccccc1)C(=O)N1C[C@H](O)C[C@H]1C(=O)N[C@@H](CCCNC(=N)N)C(=O)CF [Compound 109] (Cbz-Val-[Hyp]-Arg-CH2F) | 290 | 53 | Inhibition of RelB cleavage (Western blot) (RelB cleavage): inhibition of RelB cleavage
CC(C)[C@H](NC(=O)Nc1ccccc1)C(=O)N1CCC[C@H]1C(=O)N[C@@H](CCCNC(=N)N)C(=O)CF [Compound 129] ({NHPh-CO}-Val-Pro-Arg-CH2F) | 1520 | 52 | 
N=C(N)NCCC[C@H](NC(=O)[C@@H]1CCCN1C(=O)[C@@H](NC(=O)OCc1ccccc1)C1CCCCC1)C(=O)CF [Compound 102] (Cbz-[Chg]-Pro-Arg-CH2F) | 1450 | 44 | Maximum killing effect (TMD8; TMD8, 20 μM): 54%; Maximum killing effect (OCI-LY1; OCI-LY1, 20 μM): 19%; Maximum killing effect (OCI-LY3 [1]; OCI-LY3, 20 μM): 85%
CC(C)[C@H](NC(=O)c1cccc(C#N)c1)C(=O)N1CCC[C@H]1C(=O)N[C@@H](CCCNC(=N)N)C(=O)CF [Compound 134] | 3690 | 39 | 
COc1ccc(C(=O)N[C@H](C(=O)N2CCC[C@H]2C(=O)N[C@@H](CCCNC(=N)N)C(=O)CF)C(C)C)cc1 [Compound 123] | 1670 | 50 | 
CC(C)(C)[C@H](NC(=O)OCc1ccccc1)C(=O)N1CCC[C@H]1C(=O)N[C@@H](CCCNC(=N)N)C(=O)CF [Compound 103] (Cbz-[Tle]-Pro-Arg-CH2F) | 1440 | 43 | 
CC(C)[C@H](NC(=O)c1cnn(C)c1)C(=O)N1CCC[C@H]1C(=O)N[C@@H](CCCNC(=N)N)C(=O)CF [Compound 124] | 16800 | 100 | 
CC(C)[C@H](NC(=O)OCc1ccccc1)C(=O)N1C[C@@H](O)C[C@H]1C(=O)N[C@@H](CCCNC(=N)N)C(=O)CF [Compound 110] (Cbz-Val-[cisHyp]-Arg-CH2F) | 1070 | 49 | 
CC(C)[C@H](NC(=O)c1ccc(C(F)(F)F)cc1)C(=O)N1CCC[C@H]1C(=O)N[C@@H](CCCNC(=N)N)C(=O)CF [Compound 135] | 120 | 132 | 
CC(C)C[C@H](NC(=O)OCc1ccccc1)C(=O)N(C)[C@H](C(=O)N1CCC[C@H]1C(=O)N[C@@H](CCCNC(=N)N)C(=O)CF)C(C)C [Compound 203] (Cbz-L[NMeV]PR-CH2F) |  |  | GI50 (OCI-LY3 [2]): 819 nM; Maximum killing effect (TMD8; TMD8, 20 μM): 59%; Maximum killing effect (OCI-LY1; OCI-LY1, 20 μM): 3%; Inhibition of RelB cleavage (Western blot) (RelB cleavage): inhibition of RelB cleavage; Maximum killing effect (OCI-LY3 [1]; OCI-LY3, 20 μM): 79%
CC(C)[C@H](NC(=O)c1ccccc1Br)C(=O)N1CCC[C@H]1C(=O)N[C@@H](CCCNC(=N)N)C(=O)CF [Compound 114] | 4240 | 105 | Maximum killing effect (TMD8; TMD8, 20 μM): 40%; Maximum killing effect (OCI-LY1; OCI-LY1, 20 μM): 9%; Maximum killing effect (OCI-LY3 [1]; OCI-LY3, 20 μM): 80%
CC(C)[C@H](NC(=O)Cc1ccccc1)C(=O)N1CCC[C@H]1C(=O)N[C@@H](CCCNC(=N)N)C(=O)CF [Compound 117] (PhAc-Val-Pro-Arg-CH2F) | 3370 | 42 | 
CC(C)[C@H](NC(=O)C1CCCCC1)C(=O)N1CCC[C@H]1C(=O)N[C@@H](CCCNC(=N)N)C(=O)CF [Compound 120] | 940 | 56 | Maximum killing effect (TMD8; TMD8, 20 μM): 52%; Maximum killing effect (OCI-LY1; OCI-LY1, 20 μM): <0%; Maximum killing effect (OCI-LY3 [1]; OCI-LY3, 20 μM): 81%
CC(C)[C@H](NC(=O)CCc1ccccc1)C(=O)N1CCC[C@H]1C(=O)N[C@@H](CCCNC(=N)N)C(=O)CF [Compound 119] (Hydrocinnamoyl-Val-Pro-Arg-CH2F) | 1880 | 43 | 
CC(C)[C@H](NC(=O)c1cccc(N2CCN(C)CC2)c1)C(=O)N1CCC[C@H]1C(=O)N[C@@H](CCCNC(=N)N)C(=O)CF [Compound 132] | > 20000 | 175 | 

Further lines, with some results ahead:

GI50 (OCI-LY3 [2]; Homo sapiens) [nM] | Ki (MALT1) [nM] | SMILES | further results
4310 | 1180 | N=C(N)NCCC[C@H](NC(=O)[C@@H]1CCCN1C(=O)C1(NC(=O)OCc2ccccc2)CCCC1)C(=O)CF [Compound 181] (Cbz-[Ac5c]-Pro-Arg-CH2F) | 
520 | 27 | CC(C)[C@H](NC(=O)Nc1cccc(Cl)c1)C(=O)N1CCC[C@H]1C(=O)N[C@@H](CCCNC(=N)N)C(=O)CF [Compound 165] | 
570 | 55 | CC(C)[C@H](NC(=O)c1ccc2ccccc2n1)C(=O)N1CCC[C@H]1C(=O)N[C@@H](CCCNC(=N)N)C(=O)CF [Compound 155] | 
5490 | 93 | CC(C)C[C@H](NC(=O)OCc1ccccc1)C(=O)N1CCC[C@H]1C(=O)N[C@@H](CCCNC(=N)N)C(=O)CF [Compound 184] (Cbz-Leu-Pro-Arg-CH2F) | 
980 | 45 | CC(C)[C@H](NC(=O)c1ccc(C(C)(C)C)cc1)C(=O)N1CCC[C@H]1C(=O)N[C@@H](CCCNC(=N)N)C(=O)CF [Compound 162] | 
120 | 20 | CC(C)[C@H](NC(=O)c1ccc(Br)cc1)C(=O)N1COC[C@H]1C(=O)N[C@@H](CCCNC(=N)N)C(=O)CF [Compound 174] | 
850 | 40 | Cc1cc(Br)ccc1C(=O)N[C@H](C(=O)N1CCC[C@H]1C(=O)N[C@@H](CCCNC(=N)N)C(=O)CF)C(C)C [Compound 183] | 
1100 | 182 | CC(C)C[C@H](NC(=O)c1ccc(Br)cc1)C(=O)N1CCC[C@H]1C(=O)N[C@@H](CCCNC(=N)N)C(=O)CF [Compound 185] | 
70 | 50 | CC(C)[C@H](NC(=O)c1ccc(Br)cc1)C(=O)N1C[C@H](O)C[C@H]1C(=O)N[C@@H](CCCNC(=N)N)C(=O)CF [Compound 171] | 
290 | 64 | CC(C)[C@H](NC(=O)OCc1ccccc1)C(=O)N[C@@H](CO)C(=O)N[C@@H](CCCNC(=N)N)C(=O)CF [Compound 140] | 
460 | 70 | CC(C)[C@H](NC(=O)c1ccc(Br)cc1)C(=O)N1CCOC[C@H]1C(=O)N[C@@H](CCCNC(=N)N)C(=O)CF [Compound 175] | 
460 | 79 | CC(C)[C@H](NC(=O)c1ccc(Br)cc1)C(=O)N1CCCC[C@H]1C(=O)N[C@@H](CCCNC(=N)N)C(=O)CF [Compound 144] | 
1750 | 121 | CC(C)[C@H](NC(=O)c1ncc(-c2ccccc2)s1)C(=O)N1CCC[C@H]1C(=O)N[C@@H](CCCNC(=N)N)C(=O)CF [Compound 139] | 
2340 | 13 | CC(C)[C@H](NC(=O)c1ccc(F)cc1)C(=O)N1CCC[C@H]1C(=O)N[C@@H](CCCNC(=N)N)C(=O)CF [Compound 160] | 
4220 | 139 | CC(C)[C@H](NC(=O)c1ccnc2ccccc12)C(=O)N1CCC[C@H]1C(=O)N[C@@H](CCCNC(=N)N)C(=O)CF [Compound 159] | 
